Assay results published in PubChem BioAssay AID2124 (Sanford-Burnham Center for Chemical Genomics, 2009).
Inconclusive results are not listed. Activity calls are given as the source filed them. How the calls were made is not given here; tested in MIN6 cells.

Experiment: GFP-wavelength compound autofluorescence in cells – imaging, high-content imaging, artefact control, dose response (AID 2124);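 further: cells exposed to compound for 48 hours before fixing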
Details: cells, GFP-channel autofluorescence, high-content imaging, at 10 µM; for z-score: stronger effect = higher value

| Structure (SMILES) | z-score | cell count |
| --- | --- | --- |
| Cc1cc(S(=O)(=O)NC2CCCCC2)c(C)s1 | -0.33 (inactive) | 3420 cells |
| O=C(c1cc([N+](=O)[O-])ccc1N1CCCC1)N1CCCC1 | -0.38 (inactive) | 3210 cells |
| CCN(CC)c1ccc(/C=C2/SC(=O)N(C(C)C)C2=O)o1 | 0.73 | 596 cells |
| CN(C)c1ccc(C(=O)N/N=C/c2cc(Br)cc(Br)c2O)cc1 | -0.38 (inactive) | 2500 cells |
| CCCCN1C(=O)/C(=C/C=C2\Oc3ccccc3N2CC)SC1=S | 1.42 | 3450 cells |
| Cc1noc(/C=C/c2ccc(-c3ccccc3Cl)o2)c1[N+](=O)[O-] | 0.5 | 3160 cells |
| COCCN1CN(S(=O)(=O)c2ccccc2)c2nc3ccccc3nc21 | -0.38 (inactive) | 3380 cells |
| CCCCNC(=O)/C(C#N)=c1\s/c(=C\c2ccccc2OC(F)F)c(=O)n1CCCOC | -0.37 (inactive) | 3260 cells |
| CCc1cc2c(CN3CCN(CCO)CC3)cc(=O)oc2cc1O | -0.38 (inactive) | 3140 cells |
| O=C(OCC(=O)N1CCN(C(=O)c2ccco2)CC1)c1ccccc1OCc1ccccc1 | -0.38 (inactive) | 2850 cells |
| CNC(=S)NNC(=O)c1oc2nc(-c3ccccc3)cc(-c3ccco3)c2c1N | -0.3 (inactive) | 2940 cells |
| COc1cc2nc(/C=C/c3ccc(N(C)C)cc3)sc2cc1SC | 0.29 | 2900 cells |
| COc1cc([N+](=O)[O-])ccc1-c1ccc(/C=N/NC(N)=O)o1 | -0.34 (inactive) | 2860 cells |
| O=C1S/C(=C/c2ccc(N3CCOCC3)o2)C(=O)N1Cc1ccc(F)cc1 | 0.51 | 3300 cells |
| CCC(=O)Nc1ccc2c(c1)ncn2-c1ccccc1 | -0.34 (inactive) | 3260 cells |
| CC(=Nc1ccc(C)cc1C)c1sc2ccccc2c1O | -0.3 (inactive) | 2760 cells |
| COC(=O)c1ccc(COc2ccc3c(C)c(C)c(=O)oc3c2)o1 | -0.33 (inactive) | 3400 cells |
| CCOC(=O)c1nn(-c2ccc(Cl)cc2Cl)c(=N)c(C#N)c1C | 0.25 | 2790 cells |
| CCOc1ccc(NC2=NCC(=O)N2Cc2cccs2)cc1 | -0.38 (inactive) | 3020 cells |
| Cc1c(C(c2ccc([N+](=O)[O-])cc2)c2c(C)n(C)n(-c3ccccc3)c2=O)c(=O)n(-c2ccccc2)n1C | -0.39 (inactive) | 3040 cells |
| Cc1cc(C)cc(NC(=O)/C=C/c2ccc([N+](=O)[O-])s2)c1 | 0.02 | 960 cells |
| CS(=O)(=O)ON=C1CCN(S(=O)(=O)c2ccccc2)CC1 | -0.33 (inactive) | 3400 cells |
| CCc1ccccc1N1C(=O)/C(=C/c2ccc(N3CCN(C)CC3)o2)C(=O)NC1=S | -0.35 (inactive) | 2580 cells |
| Cc1nn(-c2c(Cl)cc(Cl)cc2Cl)c(=O)c2ccccc12 | -0.33 (inactive) | 3220 cells |
| O=C(Nc1ccc(C2CCCCC2)cc1)C1CCCN(c2ncccn2)C1 (stereo not given) | -0.38 (inactive) | 2990 cells |
| CCN(CC)c1ccc2cc(S(=O)(=O)c3ccc(Cl)cc3)c(=O)oc2c1 | -0.31 (inactive) | 2590 cells |
| O=C1CN(C(=O)COc2ncnc3ccccc23)c2ccccc2N1 | -0.38 (inactive) | 3020 cells |

| Structure (SMILES) | z-score | cell count |
| --- | --- | --- |
| COC(=O)c1c[nH]n2c(=O)c(Cc3ccc(F)cc3Cl)c(C)nc12 | -0.33 (inactive) | 3100 cells |
| O=C1N/C(=N/Nc2ccccc2)S/C1=C\c1ccccc1 | -0.26 (inactive) | 3090 cells |
| O=C(COc1ccc(Cl)cc1)NCc1nnc(SCC(=O)NC2CCCCC2)o1 | -0.32 (inactive) | 3660 cells |
| Cc1cc(C)cc(N=Cc2[nH]c3ccc(Br)c(Cl)c3c2O)c1 | 0.1 | 2820 cells |
| CCOC(=O)N1CCN(C(=O)c2cc(S(=O)(=O)N3CCCC3)cn2C)CC1 | -0.33 (inactive) | 3250 cells |
| C=CCNC(=O)c1c2c(nc3ccccc13)-c1ccccc1CC2 | -0.39 (inactive) | 3270 cells |
| Cc1[nH]c2ccccc2c1Cc1nnc(SCC(N)=O)o1 | -0.26 (inactive) | 2780 cells |
| Cc1cc(C)c(C#N)c(SCC2COc3ccccc3O2)n1 (stereo not given) | -0.33 (inactive) | 3670 cells |
| NS(=O)(=O)c1ccc(NC=C2C(=O)OC3(CCCCC3)OC2=O)cc1 | -0.25 (inactive) | 3080 cells |
| CN(C)c1ccc(/C=C2\SC(=S)N(Nc3ncc(C(F)(F)F)cc3Cl)C2=O)cc1 | 0.57 | 2530 cells |
| CCN(CC)CCn1c(=S)[nH]c2ccc(Cl)cc2c1=O | -0.33 (inactive) | 2890 cells |
| CC(=O)NC(c1ccc(Cl)cc1)c1c(O)ccc2ccc(O)cc12 (stereo not given) | -0.38 (inactive) | 3140 cells |
| N#C/C(=C/c1ccc(-c2ccc(S(N)(=O)=O)cc2)o1)c1nc2ccccc2s1 | 1.86 | 1680 cells |
| N#C/C(=C/c1ccc(N2CCCCCC2)o1)c1ccc(Cl)cc1 | 0.94 | 277 cells |
| O=[N+]([O-])c1ccc(N(c2ccccc2)c2ccccc2)cc1 | -0.32 (inactive) | 2510 cells |
| COc1nc(OC)nc(N2CCC(C(=O)NCc3cccs3)CC2)n1 | -0.33 (inactive) | 2940 cells |
| CCOC(=O)CC1C(=O)NCCN1c1nc2ccc(C)cn2c(=O)c1/C=C1\SC(=S)N(C(C)CC)C1=O (stereo not given) | -0.02 | 2960 cells |
| N#C/C(=C/c1ccc(N2CCOCC2)o1)c1nc2ccccc2[nH]1 | 0.11 | 2960 cells |
| O=C(NCCc1csc(-c2ccccc2)n1)c1ccccc1F | -0.25 (inactive) | 3010 cells |
| C=CCNC(=O)C1CCN(S(=O)(=O)c2ccc(Br)cc2)CC1 | -0.33 (inactive) | 3230 cells |
| Cc1ccc(-n2c(O)c(/C=N/NC(=O)C3COc4ccccc4O3)c3ccccc3c2=O)cc1 (stereo not given) | -0.25 (inactive) | 2870 cells |
| Cc1cc(C)n(-c2ccc(OCC(=O)O)nn2)n1 | -0.33 (inactive) | 3400 cells |
| COc1cc(N2CCCC2)c(OC)cc1/C=C1/NC(=S)NC1=O | 0.59 | 2940 cells |
| COCCNC(=O)c1onc(CSc2cccc(C)c2)c1C(=O)O | -0.39 (inactive) | 3170 cells |
| Cn1ncc2c1ncn1nc(CCc3ccccc3)nc21 | -0.33 (inactive) | 2710 cells |
| O=C(O)c1cc(-c2ccncc2)nc2ccc(F)cc12 | -0.39 (inactive) | 3070 cells |
| O=C1S/C(=C\c2ccc(N3CCOCC3)o2)C(=O)N1Cc1ccc(F)cc1 | 1.17 | 665 cells |

| Structure (SMILES) | z-score | cell count |
| --- | --- | --- |
| CC1=Nc2ccccc2/C1=C/c1sc(=S)n(-c2cccc(C(=O)O)c2)c1O | -0.37 (inactive) | 3380 cells |
| COc1cc2c3nnc(-c4ccccc4)c-3cn(Cc3ccccc3F)c2cc1OC | 3.78 | 770 cells |
| Nc1c(C(=O)N/N=C/c2ccccc2Cl)oc2nc(-c3ccccc3)cc(-c3ccco3)c12 | -0.27 (inactive) | 2970 cells |
| CC(NC(=O)/C(C#N)=C1\N=C(NC(=O)c2ccco2)c2ccccc21)c1ccccc1 (stereo not given) | -0.32 (inactive) | 2760 cells |
| CCCCN1C(=O)/C(=C/C=C2/CC(C)(C)CN2C)SC1=S | 0.43 | 2800 cells |
| COc1ccc(-c2ccc3c(N)c(C(=O)c4cccc(OC)c4)sc3n2)cc1 | -0.24 (inactive) | 2850 cells |
| COc1cc(S(=O)(=O)N2CCOCC2)ccc1NC(=O)COC(=O)C12CC3CC(CC(C3)C1)C2 | -0.39 (inactive) | 3410 cells |
| Cc1noc(C)c1CS(=O)(=O)c1ccc(Br)cc1 | -0.26 (inactive) | 2900 cells |
| O=Nc1c(O)n(Cc2ccc(Cl)cc2)c2ccccc12 | -0.33 (inactive) | 3420 cells |
| CN1/C(=C\C=C2/C(=O)Oc3ccccc3C2=O)C(C)(C)c2ccccc21 | 3.27 | 3310 cells |
| CN1/C(=C/C=C(C#N)C#N)C=Cc2ccccc21 | -0.35 (inactive) | 2500 cells |
| COCc1cc(C)nc(Nc2ccccc2C)c1C#N | -0.34 (inactive) | 3240 cells |
| Clc1ccc2oc(-c3ccccn3)nc2c1 | -0.24 (inactive) | 2940 cells |
| COc1cc2c3nnc(-c4ccc(F)cc4)c-3cn(Cc3ccc(F)cc3)c2cc1OC | 2.53 | 274 cells |
| COc1cc2c(cc1NC(=O)CN1CCN(S(=O)(=O)c3ccccc3F)CC1)oc1ccccc12 | -0.33 (inactive) | 3180 cells |
| O=C(NCCCN1CCCCCC1)C1CC(=O)N(C2CCCC2)C1 (stereo not given) | -0.33 (inactive) | 3260 cells |
| O=C(CSc1ncn[nH]1)NCc1ccccc1 | -0.39 (inactive) | 3380 cells |
| CCOc1ccc2[nH]c(=O)c(CN(CCc3ccccc3)C(=O)N3CCOCC3)cc2c1 | -0.26 (inactive) | 3100 cells |
| CCOc1ccc(NC(=O)Cn2c(=O)oc3ccccc32)cc1 | -0.25 (inactive) | 3070 cells |
| Cc1ccc(S(=O)(=O)C(C#N)c2nc3ccccc3nc2N2CCC(C)CC2)cc1 (stereo not given) | -0.33 (inactive) | 3260 cells |
| O=C(NCC1CCCO1)C1CCN(S(=O)(=O)N2CCCC2)CC1 (stereo not given) | -0.33 (inactive) | 3190 cells |
| CCCCn1c(SCC(=O)O)nc2ccccc21 | -0.33 (inactive) | 2830 cells |
| CCCc1n[nH]c2c1C(=O)C(C(=O)OC)C(C)(C)C2 (stereo not given) | -0.39 (inactive) | 3280 cells |
| CCN1CCN(C2=CC3=CC(=C(C#N)C#N)CCC3CC2)CC1 (stereo not given) | 1.63 | 3180 cells |
| N#CC(C#N)=C1C=C2C=C(N3CCCCC3)CCC2CC1 (stereo not given) | 3 | 3020 cells |
| N#C/C(=C\c1ccc(N2CCCCC2)o1)C(=O)Nc1cccc(Br)c1 | 3.15 | 2780 cells |
